Source: patent US7351389B2, “Aminocarboxylate ligands having substituted aromatic amide moieties” (Bracco International B.V., priority 1991, dated 2008)

Columns and labels:
[1] = T1 relaxivity of gadolinium complexes (IBM Minispec spin analyzer); format: physicochemical; conditions: Gd(L) complex, 20 MHz, 39±1° C.; for T1 Relaxivity: aqueous solutions, 0.1-5 mM Gd
Procedure: The T1 relaxivity was measured for nine prior art gadolinium complexes (1-9) as compared to novel gadolinium complexes using the ligands of Examples 1, 2 and 3 (#10, 11 and 12, respectively, in the Table below). Relaxivity was measured on an IBM Minispec spin analyzer operating at 20 MHz and 39±1° C. Aqueous solutions were used in 0.1-5 mM Gd concentration range.

[2] = chelating a paramagnetic ion, e.g., Gd; cited from earlier work
[3] = chelating a paramagnetic ion, e.g., Gd; cited from earlier work; remark: listed apart in the source

Molecule	relaxivity (comparison in words of Table 1) [1]	T1 Relaxivity [1] [mM⁻¹ s⁻¹]	relaxivity [2]	water solubility [3]
O=C(O)CN(CCN(CC(=O)O)CC(=O)O)CCN(CC(=O)O)CC(=O)O (Gd complex, metal not drawn) [DTPA, diethylenetriaminepentaacetic acid, reference compound]		3.7		
O=C(O)CN1CCN(CC(=O)O)CCN(CC(=O)Nc2ccccc2)CCN(CC(=O)O)CC1			acceptable relaxivity	poor water solubility
10-[2-[[3,5-Bis[[(2,3-dihydroxypropyl)amino]-carbonyl]phenyl]amino]-2-oxoethyl]-1,4,7,10-tetraazacyclododecane-1,4,7-triacetic acid, monogadolinium complex [HAA-DO3A]	especially high	5.8		

Second part, led by results:

relaxivity (comparison in words of Table 1) [1]	T1 Relaxivity [1] [mM⁻¹ s⁻¹]	Molecule	relaxivity [2]	water solubility [3]
especially high	5.4	O=C(O)CN1CCN(CC(=O)O)CCN(CC(=O)Nc2cc(C(=O)NC(CO)CO)cc(C(=O)NC(CO)CO)c2)CCN(CC(=O)O)CC1 [HAS-DO3A]		
especially high	5.9	10-[2-[[3,5-Bis[[(2-methylbutyl)amino]carbonyl]-phenyl]amino]2-oxoethyl]1,4,7,10-tetraazacyclododecane-1,4,7-triacetic acid, monogadolinium complex [AAA-DO3A]		
	3.4	O=C(O)CN1CCN(CC(=O)O)CCN(CC(=O)O)CCN(CC(=O)O)CC1 [DOTA, reference compound]		
	4.4	O=C(O)CN(CCN(CC(=O)O)C(=O)NCC(O)CO)CCN(CC(=O)O)C(=O)NCC(O)CO (centres unmarked) (Gd complex, metal not drawn) [DTPA-HA, reference compound]		
